Where “and” joins values, the source holds several entries; their conditions need not be identical. Equal entries are not always repeated.
Test system: K98450-129-R-PDC multicell spheroids, viability
Assay: Anticancer human tumor K98450-129-R-PDC patient-derived colon adenocarcinoma cell line growth inhibition [PI3K]
Details: for viability, T/C: stronger effect = lower value
How it was run: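 Combination activity was assessed by viability in multicellular tumor spheroids carrying HUVEC and MSC components. Agents were tested with PI3K inhibitors from a Cmax-based top dose (or 10 microM) downward in half-log increments.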

[1] = curve of first compound, second compound 0.0316 µM
[2] = curve of first compound, second compound 0.1 µM
[3] = curve of first compound, second compound 0.316 µM
[4] = curve of first compound, second compound 1 µM
[5] = second compound 0.0316 µM, first compound 0.0316 µM
[6] = second compound 0.0316 µM, first compound 0.1 µM
[7] = second compound 0.0316 µM, first compound 0.316 µM
[8] = second compound 0.0316 µM, first compound 1 µM
[9] = second compound 0.0316 µM, first compound 3.16 µM
[10] = second compound 0.0316 µM, first compound 10 µM
[11] = second compound 0.1 µM, first compound 0.0316 µM
[12] = second compound 0.1 µM, first compound 0.1 µM
[13] = second compound 0.1 µM, first compound 0.316 µM
[14] = second compound 0.1 µM, first compound 1 µM
[15] = second compound 0.1 µM, first compound 3.16 µM
[16] = second compound 0.1 µM, first compound 10 µM
[17] = second compound 0.316 µM, first compound 0.0316 µM
[18] = second compound 0.316 µM, first compound 0.1 µM
[19] = second compound 0.316 µM, first compound 0.316 µM
[20] = second compound 0.316 µM, first compound 1 µM
[21] = second compound 0.316 µM, first compound 3.16 µM
[22] = second compound 0.316 µM, first compound 10 µM
[23] = second compound 1 µM, first compound 0.0316 µM
[24] = second compound 1 µM, first compound 0.1 µM
[25] = second compound 1 µM, first compound 0.316 µM
[26] = second compound 1 µM, first compound 1 µM
[27] = second compound 1 µM, first compound 3.16 µM
[28] = second compound 1 µM, first compound 10 µM
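Further: spheroids exposed to agents for seven days before read-out.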

Compound: C=CC(=O)N1CCN(c2nc(=O)n(-c3c(C)ccnc3C(C)C)c3nc(-c4c(O)cccc4F)c(F)cc23)C(C)C1 (stereo unspecified) + CC(Nc1ncnc2nc[nH]c12)c1cc2cccc(Cl)c2c(=O)n1-c1ccccc1
- IC50 [1]: 5.34 µM
- IC50 [2]: 3.4 µM
- IC50 [3]: 5.92 µM
- IC50 [4]: 3.54 µM
- IC50 (curve of first compound, second compound 3.16 µM): 1.84 µM
- IC50 (curve of first compound, second compound 10 µM): 2.02 µM
- viability, T/C [5]: 94.3%
- viability, T/C [6]: 96.5%
- viability, T/C [7]: 79.7%
- viability, T/C [8]: 74.1%
- viability, T/C [9]: 53.3%
- viability, T/C [10]: 44.4%
- viability, T/C [11]: 106%
- viability, T/C [12]: 99.7%
- viability, T/C [13]: 89.2%
- viability, T/C [14]: 67.9%
- viability, T/C [15]: 52.4%
- viability, T/C [16]: 36.5%
- viability, T/C [17]: 111%
- viability, T/C [18]: 105%
- viability, T/C [19]: 92.1%
- viability, T/C [20]: 68.5%
- viability, T/C [21]: 54%
- viability, T/C [22]: 46.9%
- viability, T/C [23]: 113%
- viability, T/C [24]: 104%
- viability, T/C [25]: 89.4%
- viability, T/C [26]: 73.9%
- viability, T/C [27]: 46.9%
- viability, T/C [28]: 42%
- viability, T/C (second compound 3.16 µM, first compound 0.0316 µM): 93.5%
- viability, T/C (second compound 3.16 µM, first compound 0.1 µM): 98.1%
- viability, T/C (second compound 3.16 µM, first compound 0.316 µM): 96.9%
- viability, T/C (second compound 3.16 µM, first compound 1 µM): 60.5%
- viability, T/C (second compound 3.16 µM, first compound 3.16 µM): 44.5%
- viability, T/C (second compound 3.16 µM, first compound 10 µM): 36.6%
- viability, T/C (second compound 10 µM, first compound 0.0316 µM): 81.2%
- viability, T/C (second compound 10 µM, first compound 0.1 µM): 78.4%
- viability, T/C (second compound 10 µM, first compound 0.316 µM): 84%
- viability, T/C (second compound 10 µM, first compound 1 µM): 67.1%
- viability, T/C (second compound 10 µM, first compound 3.16 µM): 39.4%
- viability, T/C (second compound 10 µM, first compound 10 µM): 32.8%

Compound: CCCS(=O)(=O)Nc1ccc(F)c(C(=O)c2c[nH]c3ncc(-c4ccc(Cl)cc4)cc23)c1F + COc1c(OCCCN2CCOCC2)ccc2c3n(c(=NC(=O)c4cnc(N)nc4)nc12)CCN3
- IC50 (curve of first compound, second compound 0.00316 µM): 5.99 µM
- IC50 (curve of first compound, second compound 0.01 µM): 5.77 µM
- IC50 [1]: 5.54 µM
- IC50 [2]: 4 µM
- IC50 [3]: 2.71 µM
- IC50 [4]: 1.65 µM
- viability, T/C (second compound 0.00316 µM, first compound 0.0316 µM): 107%
- viability, T/C (second compound 0.00316 µM, first compound 0.1 µM): 105%
- viability, T/C (second compound 0.00316 µM, first compound 0.316 µM): 95.1%
- viability, T/C (second compound 0.00316 µM, first compound 1 µM): 120%
- viability, T/C (second compound 0.00316 µM, first compound 3.16 µM): 105%
- viability, T/C (second compound 0.00316 µM, first compound 10 µM): 5.65%
- viability, T/C (second compound 0.01 µM, first compound 0.0316 µM): 116%
- viability, T/C (second compound 0.01 µM, first compound 0.1 µM): 93%
- viability, T/C (second compound 0.01 µM, first compound 0.316 µM): 93.4%
- viability, T/C (second compound 0.01 µM, first compound 1 µM): 60.2%
- viability, T/C (second compound 0.01 µM, first compound 3.16 µM): 93.9%
- viability, T/C (second compound 0.01 µM, first compound 10 µM): 12.2%
- viability, T/C [5]: 99%
- viability, T/C [6]: 95.5%
- viability, T/C [7]: 82.3%
- viability, T/C [8]: 78.3%
- viability, T/C [9]: 91.6%
- viability, T/C [10]: 8.56%
- viability, T/C [11]: 84%
- viability, T/C [12]: 98.2%
- viability, T/C [13]: 76.2%
- viability, T/C [14]: 80.2%
- viability, T/C [15]: 61.7%
- viability, T/C [16]: 7.64%
- viability, T/C [17]: 66.5%
- viability, T/C [18]: 79.5%
- viability, T/C [19]: 72%
- viability, T/C [20]: 80.2%
- viability, T/C [21]: 46.2%
- viability, T/C [22]: 7.49%
- viability, T/C [23]: 57.6%
- viability, T/C [24]: 53.8%
- viability, T/C [25]: 54.3%
- viability, T/C [26]: 59.9%
- viability, T/C [27]: 41.9%
- viability, T/C [28]: 7.62%

Compound: CC1(C)CCC(Nc2ncc(C(F)(F)F)c(-c3c[nH]c4c(P(C)(C)=O)c(C#N)ccc34)n2)CN1 (stereo unspecified)
- viability, T/C (compound 0.0316 µM): 107% and 114% (2×) and 124%
- viability, T/C (compound 0.1 µM): 99% [middle of 4 runs]
- viability, T/C (compound 0.316 µM): 88.8% [middle of 4 runs]
- viability, T/C (compound 1 µM): 70.6% [middle of 4 runs]
- viability, T/C (compound 3.16 µM): 66.8% [middle of 4 runs]
- viability, T/C (compound 10 µM): 63.4% [middle of 4 runs]
- IC50 (curve of compound): 8.62 µM and > 10 µM and 9.21 µM

Reference: PubChem BioAssay AID1963961 (Molecular Pharmacology Branch, DTP, NCI, 2024)
